{"source": "patent US20090202573A1", "about": "“POLYMERIC CONJUGATES CONTAINING POSITIVELY-CHARGED MOIETIES” (ENZON PHARMACEUTICALS, INC., priority 2006, published 2009)", "key": {"Survivin mRNA [1]": {"tested_on": "Survivin mRNA", "assay": "Survivin mRNA downregulation in A549 cell model, RT-PCR (Examples 67, 69, 70, 71, 71 bis)", "format": "cell-based, human", "procedure": "This study was conducted to determine the effects of the positively charged polymers on Survivin mRNA expression. A549 human lung cells were transfected with each of compounds 33b-I-R4, 33b-I-R5 and 33a-I-R3 in concentrations of 1000 nM, 200 nM, 40 nM, 8 nM and 1.6 nM. […] Compound 33a-I-R3 ([RGD-TATC-S—S]7-^20K8arm PEG-SS-antisense Survivin LNA) includes the TAT peptide and antisense Survivin LNA. The Survivin mRNA expression in the A549 cells treated with each of the compounds was measured by RT-PCR one day after the treatment.\nA549 human lung cancer cells were transfected with each of compound 33a-I-R2 and the naive antisense Survivin LNA. Compound 33a-I-R2 ([(Arg)9C—S—S]7-^20K8arm PEG-S—S-antisense Survivin LNA) includes seven polymer arm terminals connected to C(Arg)9 and one arm terminal connected to the antisense Survivin LNA via the intracellular releasable disulfide bond. The naive oligonucleotides (antisense Survivin LNA) were also transfected with the transfection agent lipofectamine.\nA549 cells were transfected with each of compound 59 and the antisense Survivin LNA dimer. The dimer of the antisense Survivin LNA modified with a C6—SH tail (antisense Survivin LNA-C6—S—S—C6-antisense Survivin LNA) was also transfected with the transfection agent. Compound 59 contains a hydrazone-based releasable linker.\nThis study was conducted to determine whether the positively charged polymers containing a targeting agent is as effective as the positively charged polymers without a targeting agent and thus the polymers containing the targeting agent can be utilized for targeted delivery. A549 cells were transfected with each of compounds 33a-I-R1 (TATC-S—S)7-^20K8arm PEG-S—S-antisense Survivin LNA) and 33a-I-R3 ([RGD-TATC-S—S]7-^20K8arm PEG-S—S-antisense Survivin LNA). In compounds 33a-I-R1 and 33a-I-R3, seven polymer arm terminals are connected to C-TAT and C-TAT-RGD, respectively. The cells were also transfected with the antisense Survivin LNA modified with a SH—C6 tail with or without the transfection agent. […] This feature of the positively charged polymers is beneficial to target agent directed delivery of oligonucleotide therapeutics.\nA549 human lung cancer cells were transfected with each of compound 33a-I-R1 (TATC-S—S)7-^20K8arm PEG-S—S-antisense Survivin LNA), compound 33a-II-R1 (TATC-S—S)7-^20K8arm PEG-S—S-scrambled Survivin LNA) and the native antisense Survivin LNA. Compound […] corresponds to compound […] except in that it includes mismatching nucleotides within the antisense Survivin LNA (scrambled Survivin LNA: 5′-s^mCsGs^mCsAsgsaststsasgsasasAs^mCs^mCst-3′). The naive antisense Survivin LNA was also transfected with the transfection agent."}, "BCL2 mRNA": {"tested_on": "BCL2 mRNA", "assay": "BCL2 mRNA downregulation, RT-PCR, A431 cells (Example 66)", "format": "cell-based, human", "details": "without transfection agent, FIG. 17", "procedure": "This study was conducted to determine whether the oligonucleotides uptaken by cancer cells downregulate specific gene expression involved in cancer. A431 cells were transfected with native oligonucleotides and compound 23a-I-R1 without transfection agent. The positively charged polymer conjugate contains TAT and BCL2 siRNA."}, "Survivin mRNA [2]": {"tested_on": "Survivin mRNA", "assay": "Survivin mRNA downregulation in DU145 cell model (prostate cancer) (Example 68)", "format": "cell-based", "details": "Example 68: DU145 cells, FIG. 19", "text": "DU145 cells were transfected with the same compounds used in Example 67."}, "[3]": {"details": "Example 71: A549 cells, polymers with or without targeting agent (RGD), FIG. 22"}}, "note": "d = 2'-deoxy (DNA); r = 2'-OH (RNA)", "data": [{"substance": "[(Arg)9C—S—S]7-^20K8arm PEG-S—S-antisense Survivin LNA [Compound 33a-I-R2]", "values": [{"measurement": "Survivin mRNA expression", "setting": "Survivin mRNA [1]; Example 69: A549 cells, without the transfection agent, FIG. 20", "value": "significantly downregulated Survivin mRNA expression"}]}, {"substance": "native Bcl2 siRNA: unconjugated antisense Bcl2 siRNA (SEQ ID NOs: 4 and 5) (chain 1 GCAUGCGGCCUCUGUUUGATT; chain 2 UCAAACAGAGGCCGCAUGCTT; sugars from the 5' end r19 d2, backbone not given here)", "values": [{"measurement": "BCL2 mRNA expression", "setting": "BCL2 mRNA", "value": "downregulated BCL2 mRNA expression dose-dependently"}]}, {"substance": "[RGD-TATC-S—S]7-^20K8arm PEG-SS-antisense Survivin LNA [Compound 33a-I-R3]", "values": [{"measurement": "Survivin mRNA expression", "setting": "Survivin mRNA [1]; Example 67: A549 cells, 1000 nM to 1.6 nM, RT-PCR one day after treatment, without transfection agent, FIG. 18", "value": "significantly downregulated Survivin mRNA expression"}, {"measurement": "dose dependence of Survivin mRNA downregulation", "setting": "Survivin mRNA [1]; Example 67: A549 cells, 1000, 200, 40, 8 and 1.6 nM, FIG. 18", "value": "dose-dependent"}, {"measurement": "Survivin mRNA expression", "setting": "Survivin mRNA [1]; [3]", "value": "downregulated Survivin mRNA expression"}, {"measurement": "Survivin mRNA expression", "setting": "Survivin mRNA [2]", "value": "significant down-regulation of Survivin mRNA expression"}]}, {"substance": "(TATC-S—S)7-^20K8arm PEG-S—S-antisense Survivin LNA [Compound 33a-I-R1]", "values": [{"measurement": "Survivin mRNA expression", "setting": "Survivin mRNA [1]; [3]", "value": "downregulated Survivin mRNA expression"}, {"measurement": "Specific inhibition of Survivin mRNA expression", "setting": "Survivin mRNA [1]; second Example 71: A549 cells, antisense versus scrambled (mismatching) Survivin LNA, FIG. 23", "value": "significantly inhibited Survivin mRNA expression"}, {"measurement": "Survivin mRNA expression", "setting": "Survivin mRNA [2]", "value": "similarly observed"}]}]}
